Assay results from patent US12441687B2, “Drp1-filamin complex formation inhibitors” (RDISCOVERY, LLC, priority 2019, dated 2025).

How the values were obtained:
[1] = test system: myocardial cells from the neonatal rat; test: Evaluation of degree of mitochondrial division under hypoxia (MitoTracker Green FM, image analysis); format: cell-based
Procedure: A system for quantitatively evaluating degree of intracellular mitochondrial division was built. More specifically, myocardial cells obtained from a neonatal rat were cultured under normoxia (20%) or under hypoxia (1%) for 16 hours. The cells were then stained with a fluorescent dye (MitoTracker Green FM, from Thermo Fisher Scientific Inc.) that selectively stains mitochondria. The cells were observed under a fluorescent microscope, and the shape of mitochondria was quantified by image analysis.
FIG. 2(c) is a graph that illustrates length of mitochondria from the myocardial cells of a neonatal rat cultured under normoxia or hypoxia. In FIG. 2(c), “Normoxia” represents results obtained from culture under the normal oxygen concentration, and “Hypoxia” represents results obtained from culture under the low oxygen concentration. […]
Each of the aforementioned compounds was added to a culture medium of the myocardial cells from the neonatal rat, so as to adjust the final concentration to 1 μM, the cells were incubated for one hour, and further cultured under hypoxic environment for 16 hours. The cells were then stained in the same way as described in Exemplary Experiment 1 using MitoTracker Green FM (from Thermo Fischer Scientific Inc.), observed under a fluorescent microscope, and the shape of mitochondria was quantified. […]

[2] = test system: myocardial cells from neonatal rat; test: Aging of myocardial cell (p53 accumulation) under hypoxic-reoxygenation stimulation; format: cell-based; conditions: Exemplary Experiment 10, 1 μM, hypoxic (1%) 18 hours then normoxic (21%) 18 hours, FIG. 10
Procedure: How the cilnidipine derivatives, synthesized in Exemplary Experiment 7, can affect aging of myocardial cell was examined. Aging of myocardial cell was evaluated on the basis of accumulation of p53 protein. More specifically, each of cilnidipine, and the individual compounds namely NS4-019, NS4-021 and NS4-043, synthesized in Exemplary Experiment 7, was added to a culture medium of the myocardial cells from neonatal rat, so as to adjust the final concentration to 1 μM, and the cells were incubated for one hour. The cells were then subjected to hypoxic-reoxygenation stimulation, by cultivation under hypoxic (1%) environment for 18 hours, followed by cultivation under normoxic (21%) environment for 18 hours. The cells in each culture were then fixed with 4% paraformaldehyde, and immunostained with anti-p53 antibody and anti-α-actinin antibody. α-Actinin is a marker of myocardial cell. The cells in each culture were observed under a fluorescent microscope, and percentage of p53 accumulating cells relative to the α-actinin-positive cells was determined.

[3] = test system: SOD1-G93A mice (ALS model); test: Survival of ALS model mice (SOD1-G93A) with cilnidipine administration; format: in vivo; conditions: osmotic pump 5,000 μg/kg intraperitoneally implanted after onset of ALS, 28 days, FIG. 4(b)
Procedure: Effects of cilnidipine on intractable disease were examined. In this Exemplary Experiment, cilnidipine was administered to model mice of amyotrophic lateral sclerosis (ALS), and survival rate was examined. The ALS model mice employed were SOD1-G93A mice.
FIG. 4(a) is a drawing that illustrates an experiment schedule. An osmotic pump containing 5,000 μg/kg of cilnidipine was intraperitoneally implanted into each model mouse after onset of ALS, the drug was administered continuously over 28 days, and the survival rate was measured.

[4] = test system: H9c2 cell overexpressing A1545T mutant of filamin A gene fused with mCherry tag; test: Mitochondrial division promoted by overexpressed A1545T mutant of filamin A in H9c2 cells; format: cell-based, murine; conditions: Exemplary Experiment 9, 1 μM, 24 hours, FIG. 9(b)
Source text: A disease called filamin cardiomyopathy has been known to involve A1539T mutation (substitution of adenine at position 1539 to thymine) on filamin-C gene. Then influence of A1545T mutant of filamin A gene, similar to A1539T mutant of filamin-C gene, on the shape of mitochondria of myocardial cell was examined.
(§1) An expression vector of wild type filamin A gene fused with mCherry tag, or, an expression vector of A1545T mutant of filamin A gene fused with mCherry tag was transduced into H9c2 cell, which is a murine heart striated muscle cell line, and allowed to overexpress. Also a group, having an expression vector of mCherry transduced and allowed to overexpress therein, was prepared for comparison.
(§2) The cells were cultured for 24 hours, cilnidipine or NS4-238 was added to the culture medium while adjusting the final concentration to 1 μM, and the cells were further cultured for 24 hours. Also a group having DMSO added thereto in place of the drugs was prepared for comparison.
(§3) The cells were then stained in the same way as described in Exemplary Experiment 1 using MitoTracker Green FM (from Thermo Fischer Scientific Inc.). The cells were observed under a fluorescent microscope, and the shape of mitochondria was quantified by image analysis.

[5] = test system: model mice of type 1/2 diabetes (STZ); test: Blood sugar level in streptozotocin model mice of type 1/2 diabetes; format: in vivo; conditions: STZ 200 mg/kg mice, osmotic pump 5,000 μg/kg from 14th day, FIG. 6
Procedure: Effects of cilnidipine on intractable disease were examined. In this Exemplary Experiment, cilnidipine was administered to model mice of type 1/2 diabetes, and the blood sugar level was measured over time. The model mice of type 1/2 diabetes employed were mice intraperitoneally administered 200 mg/kg of streptozotocin (STZ) on the 42nd day after birth. Also mouse without streptozotocin administration were prepared for comparison.
Blood sugar levels of mice in the individual groups were measured over time after the start of experiment. On the 14th day after the start of experiment, an osmotic pump containing 5,000 μg/kg of cilnidipine or the solvent only was implanted into each mouse in each group, for prolonged administration.

[6] = test system: hypertensive and hyperglycemic patients; test: Retrospective analysis of blood HbA1c in hypertensive and hyperglycemic patients; format: in vivo, human; conditions: patients administered cilnidipine compared with patients administered amlodipine, FIG. 7
Procedure: Effects of cilnidipine on intractable disease were examined. The results shown in this Exemplary Experiment were obtained from retrospective analyses on patients in Kyushu University Hospital. In this Exemplary Experiment, percentages of blood HbA1c in hypertensive and hyperglycemic patients administered amlodipine, and in hypertensive and hyperglycemic patients administered cilnidipine, were evaluated.

[7] = test system: H9c2 cell overexpressing wild type filamin A gene fused with mCherry tag; test: Mitochondrial division promoted by overexpressed wild type filamin A in H9c2 cells; format: cell-based, murine; conditions: Exemplary Experiment 9, 1 μM, 24 hours, FIG. 9(b)
Procedure: as §1, §2, §3

[8] = test system: calcium channel; test: Calcium channel blocking: intracellular calcium increase after potassium chloride stimulation in Neuro-2a cells (Fura 2-AM); format: cell-based, murine
Procedure: Effect of blocking the calcium channel by the cilnidipine derivative, synthesized in Exemplary Experiment 7, was examined. More specifically, first, Neuro-2a cells which belong to a cell line of murine neuroblastoma were cultured in serum-free culture media, and Fura 2-AM (from Dojindo Laboratories) as a calcium ion probe was added to the culture media, so as to transduce it into the cells.
The culture media were then replaced with HEPES buffered nutrient solution (pH7.4), and each of cilnidipine, and the individual compounds namely NS4-019, NS4-021, NS4-043, NS4-238, and NS4-700, synthesized in Exemplary Experiment 7, was added to the culture media so as to adjust the final concentrations to 0, 1, 10, 100, and 1,000 nM, and the culture media were incubated for 30 minutes.
Depolarizing stimulation was then given by adding potassium chloride solution (to a final concentration of 60 mM), and inflow of calcium ions into the cells was observed under a fluorescent microscope.
FIG. 12 is a graph that illustrates increase of intracellular calcium ion concentration after potassium chloride stimulation. In FIG. 12, “CIL” represents results obtained from the cells having cilnidipine added thereto, “NS4-238” represents results obtained from the cells having NS4-238 added thereto, and “**” represents presence of significant difference at p<0.01. […]

[9] = test system: model mice of inflammatory bowel disease (DSS); test: Survival of DSS-induced inflammatory bowel disease model mice; format: in vivo; conditions: osmotic pump 25,000 μg/kg, 17 days, 3% DSS, FIG. 5(b)
Procedure: Effects of cilnidipine on intractable disease were examined. In this Exemplary Experiment, cilnidipine was administered to model mice of inflammatory bowel disease, and survival rate was examined. The model mice of inflammatory bowel disease employed were mice on which inflammatory bowel disease is inducible by administrating dextran sulfate (DSS).
FIG. 5(a) is a drawing that illustrates an experiment schedule. From three days before the administrating DSS started, an osmotic pump containing 25,000 μg/kg of cilnidipine was intraperitoneally implanted into each mouse, the drug was administered continuously over 17 days, and the survival rate was measured.
From the first day (Day 0) the cilnidipine administration started, the mice were fed tap water containing 3% DSS as a drinking water for seven days. Over a period between Day 7 after the start of cilnidipine administration to Day 14, the drinking water was reverted to ordinary tap water. Also a control group was prepared, in which the mice were fed a solvent only in place of cilnidipine.

[10] = target: Drp1-filamin complex (Homo sapiens, UniProt O00429+P21333); conditions: Non Patent Literature 1; cited from earlier work
Sequence of Drp1-filamin complex (O00429 whole entry): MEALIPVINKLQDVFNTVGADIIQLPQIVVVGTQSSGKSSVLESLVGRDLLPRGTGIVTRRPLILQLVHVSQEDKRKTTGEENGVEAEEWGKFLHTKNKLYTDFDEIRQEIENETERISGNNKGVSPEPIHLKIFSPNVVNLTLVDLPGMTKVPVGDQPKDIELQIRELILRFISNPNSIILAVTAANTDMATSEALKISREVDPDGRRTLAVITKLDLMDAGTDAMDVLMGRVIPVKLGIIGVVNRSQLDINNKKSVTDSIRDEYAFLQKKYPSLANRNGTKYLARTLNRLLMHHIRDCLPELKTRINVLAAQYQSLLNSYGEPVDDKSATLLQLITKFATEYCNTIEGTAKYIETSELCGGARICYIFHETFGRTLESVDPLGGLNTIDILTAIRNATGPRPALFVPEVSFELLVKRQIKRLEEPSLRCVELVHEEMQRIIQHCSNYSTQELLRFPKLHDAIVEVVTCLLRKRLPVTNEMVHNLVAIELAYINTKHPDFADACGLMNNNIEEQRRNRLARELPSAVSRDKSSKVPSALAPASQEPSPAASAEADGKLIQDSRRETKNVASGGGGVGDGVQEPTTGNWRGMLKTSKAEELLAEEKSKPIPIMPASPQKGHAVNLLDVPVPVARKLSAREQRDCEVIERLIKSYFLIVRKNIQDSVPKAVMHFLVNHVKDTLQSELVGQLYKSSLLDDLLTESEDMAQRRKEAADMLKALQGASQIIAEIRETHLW
Sequence of Drp1-filamin complex (P21333 whole entry): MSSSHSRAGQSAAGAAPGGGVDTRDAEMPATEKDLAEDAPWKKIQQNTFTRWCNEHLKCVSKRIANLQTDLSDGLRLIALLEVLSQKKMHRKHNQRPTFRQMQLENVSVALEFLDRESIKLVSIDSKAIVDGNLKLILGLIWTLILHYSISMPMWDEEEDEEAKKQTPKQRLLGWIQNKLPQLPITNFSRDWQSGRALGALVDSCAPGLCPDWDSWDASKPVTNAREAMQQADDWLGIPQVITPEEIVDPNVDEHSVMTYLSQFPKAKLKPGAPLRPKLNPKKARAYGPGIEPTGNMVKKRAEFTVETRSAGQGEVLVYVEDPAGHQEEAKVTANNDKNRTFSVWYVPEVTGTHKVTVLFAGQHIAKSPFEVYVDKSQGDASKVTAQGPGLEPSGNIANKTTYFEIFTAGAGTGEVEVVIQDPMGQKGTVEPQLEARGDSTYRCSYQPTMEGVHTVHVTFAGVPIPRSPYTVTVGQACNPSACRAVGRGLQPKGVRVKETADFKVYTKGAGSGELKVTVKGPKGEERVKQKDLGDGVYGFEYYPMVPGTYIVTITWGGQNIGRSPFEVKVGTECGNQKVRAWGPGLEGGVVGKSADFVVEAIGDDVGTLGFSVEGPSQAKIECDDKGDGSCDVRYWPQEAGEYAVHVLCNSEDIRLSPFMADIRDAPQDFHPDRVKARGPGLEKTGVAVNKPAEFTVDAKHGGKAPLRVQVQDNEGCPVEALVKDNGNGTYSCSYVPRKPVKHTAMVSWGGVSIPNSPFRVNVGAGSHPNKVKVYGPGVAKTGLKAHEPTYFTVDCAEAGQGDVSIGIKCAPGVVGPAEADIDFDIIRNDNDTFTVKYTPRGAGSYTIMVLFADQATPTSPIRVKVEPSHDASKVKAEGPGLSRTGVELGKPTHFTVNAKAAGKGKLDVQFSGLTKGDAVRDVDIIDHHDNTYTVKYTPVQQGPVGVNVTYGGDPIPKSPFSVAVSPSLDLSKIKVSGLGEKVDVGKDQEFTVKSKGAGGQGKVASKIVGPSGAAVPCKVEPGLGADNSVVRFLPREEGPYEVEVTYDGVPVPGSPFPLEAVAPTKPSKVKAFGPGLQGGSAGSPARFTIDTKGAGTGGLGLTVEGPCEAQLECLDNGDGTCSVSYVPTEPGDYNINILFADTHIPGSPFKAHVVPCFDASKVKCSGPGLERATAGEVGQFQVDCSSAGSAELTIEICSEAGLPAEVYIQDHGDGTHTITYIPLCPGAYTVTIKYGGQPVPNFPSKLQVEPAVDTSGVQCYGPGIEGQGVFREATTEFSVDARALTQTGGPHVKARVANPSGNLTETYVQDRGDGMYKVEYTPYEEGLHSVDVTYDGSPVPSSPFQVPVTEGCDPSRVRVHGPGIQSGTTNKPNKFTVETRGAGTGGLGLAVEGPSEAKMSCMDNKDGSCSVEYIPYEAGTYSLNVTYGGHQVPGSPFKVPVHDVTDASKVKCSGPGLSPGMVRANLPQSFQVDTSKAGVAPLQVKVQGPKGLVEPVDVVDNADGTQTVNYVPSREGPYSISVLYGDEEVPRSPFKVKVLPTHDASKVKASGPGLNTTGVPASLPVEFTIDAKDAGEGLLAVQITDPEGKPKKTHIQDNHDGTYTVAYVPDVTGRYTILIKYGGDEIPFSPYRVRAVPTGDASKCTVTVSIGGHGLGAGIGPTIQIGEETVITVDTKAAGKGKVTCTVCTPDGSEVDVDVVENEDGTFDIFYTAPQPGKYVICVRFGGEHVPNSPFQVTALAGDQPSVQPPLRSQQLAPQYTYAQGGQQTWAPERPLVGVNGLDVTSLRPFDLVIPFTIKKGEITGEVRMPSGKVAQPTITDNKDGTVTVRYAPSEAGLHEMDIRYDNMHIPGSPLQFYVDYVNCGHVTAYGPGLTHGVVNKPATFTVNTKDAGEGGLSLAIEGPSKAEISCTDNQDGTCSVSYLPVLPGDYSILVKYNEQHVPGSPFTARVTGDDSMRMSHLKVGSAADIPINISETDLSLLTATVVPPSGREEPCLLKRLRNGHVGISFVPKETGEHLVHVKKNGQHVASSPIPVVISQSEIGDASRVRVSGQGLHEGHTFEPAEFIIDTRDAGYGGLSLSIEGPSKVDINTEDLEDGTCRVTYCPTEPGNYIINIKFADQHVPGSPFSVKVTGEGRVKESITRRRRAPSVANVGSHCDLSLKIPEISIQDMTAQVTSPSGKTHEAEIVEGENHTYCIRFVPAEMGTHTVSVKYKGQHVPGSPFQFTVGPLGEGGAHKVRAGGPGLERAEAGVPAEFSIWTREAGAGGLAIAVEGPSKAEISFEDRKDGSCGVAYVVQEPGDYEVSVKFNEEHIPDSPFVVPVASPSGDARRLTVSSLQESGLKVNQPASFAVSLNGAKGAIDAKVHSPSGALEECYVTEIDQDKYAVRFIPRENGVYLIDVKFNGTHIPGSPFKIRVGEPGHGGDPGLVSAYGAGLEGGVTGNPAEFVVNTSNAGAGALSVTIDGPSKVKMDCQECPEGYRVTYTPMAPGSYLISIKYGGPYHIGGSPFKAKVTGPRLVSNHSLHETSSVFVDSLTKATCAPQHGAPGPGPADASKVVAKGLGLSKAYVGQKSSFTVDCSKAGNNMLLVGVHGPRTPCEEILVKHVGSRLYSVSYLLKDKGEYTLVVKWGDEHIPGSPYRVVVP

COCCOC(=O)C1=C(C)NC(C)=C(C(=O)OC/C=C/c2ccccc2)C1c1cccc([N+](=O)[O-])c1 (stereo not drawn) [cilnidipine]
percentage of cells having vesicular mitochondria (suppression of mitochondrial division) ([1]; Exemplary Experiment 2, 1 μM, hypoxic environment 16 hours, FIG. 3): significantly suppress mitochondrial division | percentage of cells having vesicular mitochondria (suppression of mitochondrial division) ([1]; Exemplary Experiment 11, 1 μM, hypoxic environment 18 hours, FIG. 11): significantly suppress mitochondrial division | percentage of p53 accumulating cells relative to α-actinin-positive cells (aging of myocardial cell) [2]: suppressive effects over aging of myocardial cell | survival rate [3]: significant elongation of lifetime | average length of mitochondrial fragments (suppression of mitochondrial division) [4]: could not suppress mitochondrial division | blood sugar level [5]: blood sugar level getting closer to the normal level | percentage of blood HbA1c [6]: significant decrease of HbA1c | average length of mitochondrial fragments (suppression of mitochondrial division) [7]: could not suppress mitochondrial division | blocking effect on the calcium channel (ΔRatio, increase of intracellular calcium ion concentration) ([8]; Exemplary Experiment 12, 0, 1, 10, 100, and 1,000 nM, 30 minutes, 60 mM potassium chloride, FIG. 12): showed blocking effects exerted on the calcium channel | blocking effect on the calcium channel (ΔRatio) ([8]; Exemplary Experiment 15, at 1000 nM, FIG. 15): showed blocking effects on the calcium channel | survival rate [9]: significant increase of the survival rate | inhibition of formation of the Drp1-filamin complex [10]: inhibits formation of the Drp1-filamin complex
